Tests used:
GLEPP-1 = molecular target: T1, GLEPP-1 (Homo sapiens, UniProt Q16827); assay: PTP Enzyme Assay (DiFMUP substrate), GLEPP-1; type: biochemical; settings: catalytic core of human recombinant PTP, DiFMUP at Km; read-out: inhibition (IC50) with regard to GLEPP-1
T1 construct: using the catalytic core of a human recombinant PTP, as an enzyme; made in house
T1 sequence (Q16827 938-1195 limits assumed): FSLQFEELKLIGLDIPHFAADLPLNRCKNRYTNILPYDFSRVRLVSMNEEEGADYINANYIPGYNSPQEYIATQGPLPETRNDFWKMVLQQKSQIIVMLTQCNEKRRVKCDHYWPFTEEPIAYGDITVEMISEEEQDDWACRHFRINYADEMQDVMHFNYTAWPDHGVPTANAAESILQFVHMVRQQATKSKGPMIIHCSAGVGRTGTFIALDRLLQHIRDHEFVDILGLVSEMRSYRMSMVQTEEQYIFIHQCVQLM
Source text: (§1) (1) The PTP Enzyme Assay (In Vitro Assay)
(§2) The PTP Enzyme Assay aims at determining the extent of inhibition of the examined PTP (e.g. PTP1B, TC-PTP, PTP-β, DEP-1, LAR, SHP-1, SHP-2, GLEPP-1, PTP-κ, PTP-μ, VHR, hVH5) in the presence of a test compound. The inhibition is illustrated by IC50 values which denote the concentration necessary to achieve an inhibition of 50% of the given PTP.
(§3) The cloning and expression of the catalytic domain of PTPs (e.g. PTP1B, TC-PTP, PTP-β, DEP-1, LAR, SHP-1, SHP-2, GLEPP-1, PTP-κ, PTP-μ, VHR, hVH5) may be performed as described in J. Biol. Chem. 2000, 275(13), pp 9792-9796.
(§4) Assays were performed in a 96 well plate format, using the catalytic core of a human recombinant PTP, as an enzyme and 6,8-DiFluoro-4-MethylUmbelliferyl Phosphate (DiFMUP, Molecular Probes, D-6567) as a substrate at the Km value which was determined for each enzyme. Compounds to be tested were dissolved in 100% DMSO at a concentration of 2 mM. […] The reaction ran for 30 minutes at room temperature before reading the fluorescence intensity on a Perkin-Elmer Victor 2 spectrofluorimeter (excitation at 355 nm, emission at 460 nm, for 0.1 s). The percentage of inhibition relative to the fluorescence observed in the presence of solvent (5% DMSO) alone was determined. The IC50 values for inhibition were determined in triplicates on at least 3 separate occasions.

PTP1B = molecular target: T2, PTP1B (Homo sapiens, UniProt P18031); assay: PTP Enzyme Assay (DiFMUP substrate), PTP1B; type: biochemical; settings: catalytic core of human recombinant PTP, DiFMUP at Km; read-out: inhibition (IC50) with regard to PTP1B
T2 construct: using the catalytic core of a human recombinant PTP, as an enzyme; made in house
T2 sequence (P18031 3-277 limits assumed): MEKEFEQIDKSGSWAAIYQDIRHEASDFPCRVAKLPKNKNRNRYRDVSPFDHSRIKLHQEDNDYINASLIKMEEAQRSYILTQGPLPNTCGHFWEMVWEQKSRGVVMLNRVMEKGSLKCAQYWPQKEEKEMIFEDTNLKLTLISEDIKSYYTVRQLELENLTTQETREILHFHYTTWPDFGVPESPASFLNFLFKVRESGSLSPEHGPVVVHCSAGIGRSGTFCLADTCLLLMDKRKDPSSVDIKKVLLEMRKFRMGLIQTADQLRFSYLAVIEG
Source text: as §1, §2, §3, §4

| Structure (SMILES) | IC50 (GLEPP-1) [nM] | IC50 (PTP1B) [nM] |
| --- | --- | --- |
| O=C1NN(c2ccc(I)cc2)C(=O)C1=Cc1ccc(Br)o1 [Compound 25, 4-(5-Bromo-furan-2-ylmethylene)-1-(4-iodo-phenyl)-pyrazolidine-3,5-dione] | ~130 | 40 |
| O=C1NN(c2ccc(I)cc2)C(=O)C1=Cc1cc(Br)c(O)c2ncccc12 [Compound 35] |  | 580 |
| O=C1NN(c2ccc(I)cc2)C(=O)C1=Cc1ccc([N+](=O)[O-])o1 [Compound 45, 1-(4-Iodo-phenyl)-4-(5-nitro-furan-2-ylmethylene)-pyrazolidine-3,5-dione] | 47 |  |
